Measurements reported in patent publication US6596772B1, “Phosphate mimics and methods of treatment using phosphatase inhibitors” (Sugen, Inc., priority 1999, dated 2003).
Read-outs that look alike come from different tables or passages of the source.

Assays:
Test in all cases: PTP IC50 assay, pNPP or FDP as substrate
Format in all cases: biochemical
PTP EPSILON = biological target: T1, PTP EPSILON (Homo sapiens, UniProt P23469)
T1 construct: made in house; host or cells: Sf-9 insect cells (pFastBac-G2T); a pGEX 6P-1 construct also existed
T1 sequence (P23469 80-393 limits assumed): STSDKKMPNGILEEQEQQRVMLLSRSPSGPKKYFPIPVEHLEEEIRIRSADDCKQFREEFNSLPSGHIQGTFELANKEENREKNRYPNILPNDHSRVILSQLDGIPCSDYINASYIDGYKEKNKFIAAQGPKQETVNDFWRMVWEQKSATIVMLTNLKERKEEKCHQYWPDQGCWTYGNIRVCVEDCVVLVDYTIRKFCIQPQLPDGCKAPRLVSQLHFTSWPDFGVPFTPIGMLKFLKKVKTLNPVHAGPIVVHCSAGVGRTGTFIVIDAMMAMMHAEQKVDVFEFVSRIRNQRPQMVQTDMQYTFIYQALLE
Protocol: (§1) The following in vitro assay procedure is preferred to determine the level of activity and effect of the different compounds of the present invention on one or more of the PTPs. Similar assays can be designed along the same lines for any PTP using techniques well known in the art.
(§2) The catalytic assays described herein are performed in a 96-well format. The general procedure begins with the determination of PTP optimal pH using a three-component buffer system that minimizes ionic strength variations across a wide range of buffer pH. Next, the Michaelis-Menten constant, or Km, is determined for each specific substrate-PTP system. This Km value is subsequently used as the substrate reaction concentration for compound screening. Finally, the test PTP is exposed to varying concentrations of compound for fifteen minutes and allowed to react with substrate for ten minutes. The results are plotted as percent inhibition versus compound concentration and the IC50 interpolated from the plot.
(§3) All assays were performed using pNPP or FDP as substrate. The optimum pH was determined for each PTP used.
(§4) PTPase activity was assayed at 25° C. in a 100-μl reaction mixture containing an appropriate concentration of pNPP or FDP as substrate. The reaction was initiated by addition of the PTP and quenched after 10 min by addition of 50 μl of IN NaOH. The non-enzymatic hydrolysis of the substrate was corrected by measuring the control without the addition of the enzyme. The amount of p-nitrophenol produced was determined from the absorbance at 410 nm. To determine the kinetic parameter, Km, the initial velocities were measured at various substrate concentrations and the data were fitted to the Michaelis equation where velocity=(Vmax*[S])/(Km+[S]), and [S]=substrate reaction concentration.
(§5) The effect of the compounds on PTP was evaluated at 25° C. using pNPP or FDP as substrate. PTP was pre-incubated for fifteen minutes with various concentrations of compound. Substrate was then added at a fixed concentration (usually equal to the Km previously calculated). After 10 minutes, NaOH was added to stop the reaction. The hydrolysis of pNPP was followed at 410 nm on the Biotek Powerwave 200 microplate scanning spectrophotometer. The percent inhibition was calculated as follows: Percent Inhibition=[(control signal−compound signal)/control signal] ×100%. The IC50 was then determined by interpolation of a percent inhibition versus compound concentration plot.
(§6) Plasmids designed for bacterial GST-PTP fusion protein expression were derived by insertion of PCR-generated human PTP fragments into pGEX vectors (Pharmacia Biotech). Several of these constructs were then used to subclone phosphatases into pFastBac-1for expression in Sf-9 insect cells. Oligonucleotides used for the initial amplification of PTP genes are shown below. The cDNAs were prepared using the Gilbo BRL superscript preamplification system on RNAs purchased from Clontech.
The PTPepsilon cDNA was amplified from human placenta single-strand cDNA (Clontech RNA) using the following oligonucleotides: 5′oligo: 5′-[…]-3′ (SEQ ID NO: 6) 3′oligo: 5′-[…]-3′ (SEQ ID NO: 7) After cloning this PCR product into the Bam HI/Xho I sites of pGEX 6P-1, this phosphatase was subcloned using the same restriction sites in pFastBac-G2T.

PTP SIGMA = biological target: T2, PTP SIGMA (Homo sapiens, UniProt Q13332)
T2 construct: made in house; host or cells: E. coli BL-21 (pGEX 6P-1)
T2 sequence (Q13332 1320-1660 limits assumed): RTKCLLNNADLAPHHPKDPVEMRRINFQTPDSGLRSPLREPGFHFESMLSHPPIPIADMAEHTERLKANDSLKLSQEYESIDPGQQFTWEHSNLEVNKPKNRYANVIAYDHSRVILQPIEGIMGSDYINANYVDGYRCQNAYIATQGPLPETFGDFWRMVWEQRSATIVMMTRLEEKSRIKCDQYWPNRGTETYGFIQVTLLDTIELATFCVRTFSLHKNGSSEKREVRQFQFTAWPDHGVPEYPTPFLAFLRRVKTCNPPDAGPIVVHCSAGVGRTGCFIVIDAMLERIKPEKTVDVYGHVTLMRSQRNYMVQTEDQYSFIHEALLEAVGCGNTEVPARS
Protocol: as §1, §2, §3, §4, §5, §6
The PTP Sigma cDNA was amplified from human brain single strand cDNA (Clontech RNA) using the following oligonucleotides: 5′oligo: 5′-[…]-3′ (SEQ ID NO: 12) 3′oligo: 5′-[…]-3′ (SEQ ID NO: 13) and subsequently ligated into pGex 6P-1 Eco RI/Xho I sites.

PTP ZETA = biological target: T3, PTP ZETA (Homo sapiens, UniProt P23471); details: 25° C.
T3 construct: made in house; host or cells: E. coli BL-21 (pGEX 6P-1)
T3 sequence (P23471 1667-2028 limits assumed): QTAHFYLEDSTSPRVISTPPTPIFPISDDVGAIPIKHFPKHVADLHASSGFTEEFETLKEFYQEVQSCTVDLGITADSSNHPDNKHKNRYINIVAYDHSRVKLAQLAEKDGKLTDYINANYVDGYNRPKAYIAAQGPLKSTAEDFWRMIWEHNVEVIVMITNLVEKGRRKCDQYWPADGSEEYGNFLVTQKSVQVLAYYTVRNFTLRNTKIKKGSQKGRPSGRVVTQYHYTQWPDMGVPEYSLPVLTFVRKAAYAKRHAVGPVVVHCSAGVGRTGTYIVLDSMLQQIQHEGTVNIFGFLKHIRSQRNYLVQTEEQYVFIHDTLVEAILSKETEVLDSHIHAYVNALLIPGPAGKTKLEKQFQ
Protocol: as §1, §2, §3, §4, §5, §6
The PTP Zeta cDNA was amplified from human placenta single strand cDNA (Clontech RNA) using the following oligonucleotides 5′oligo: 5′-[…]-3′ (SEQ ID NO: 10) 3′oligo: 5′-[…]-3′ (SEQ ID NO: 11) and subsequently ligated into pGEX 6P-1 Eco RI/Xho I sites.

PTP MU = biological target: T4, PTP MU (Homo sapiens, UniProt P28827)
T4 construct: made in house; host or cells: E. coli BL-21 (pGEX 6P-1)
T4 sequence (P28827 831-1186 limits assumed): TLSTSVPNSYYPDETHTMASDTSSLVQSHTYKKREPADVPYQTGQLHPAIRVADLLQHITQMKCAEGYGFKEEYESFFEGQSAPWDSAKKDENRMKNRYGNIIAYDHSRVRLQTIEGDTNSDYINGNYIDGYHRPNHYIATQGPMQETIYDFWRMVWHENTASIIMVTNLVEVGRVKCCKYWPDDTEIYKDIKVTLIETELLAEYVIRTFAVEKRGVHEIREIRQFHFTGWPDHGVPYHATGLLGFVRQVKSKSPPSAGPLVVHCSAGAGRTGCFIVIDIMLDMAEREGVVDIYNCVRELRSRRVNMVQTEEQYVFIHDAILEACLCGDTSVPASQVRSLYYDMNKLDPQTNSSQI
Protocol: as §1, §2, §3, §4, §5, §6
The PTP Mu cDNA was amplified from a human lung cDNA library (Clontech) using the following oligonucleotides; 5′oligo: 5′-[…]-3′ (SEQ ID NO: 18) 3′oligo: 5′-[…]-3′ (SEQ ID NO: 19) It was subsequently ligated into the Eco RI/Xho I sites of pGEX 6P-1.

PTP MEG2 = biological target: T5, PTP MEG2 (Homo sapiens, UniProt P43378)
T5 construct: made in house; host or cells: E. coli BL-21 (pGEX 6P-1)
T5 sequence (P43378 262-593 limits assumed): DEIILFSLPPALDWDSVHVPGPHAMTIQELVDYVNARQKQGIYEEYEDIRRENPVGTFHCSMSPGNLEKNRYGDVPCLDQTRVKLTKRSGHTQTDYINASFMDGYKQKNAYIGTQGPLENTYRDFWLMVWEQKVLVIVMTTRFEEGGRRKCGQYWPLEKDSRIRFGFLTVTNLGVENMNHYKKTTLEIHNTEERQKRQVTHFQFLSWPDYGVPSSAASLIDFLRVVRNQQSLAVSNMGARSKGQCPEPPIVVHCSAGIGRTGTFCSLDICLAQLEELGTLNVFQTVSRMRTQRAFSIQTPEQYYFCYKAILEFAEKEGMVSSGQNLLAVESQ
Protocol: as §1, §2, §3, §4, §5, §6
The PTP MEG2 cDNA was amplified from human placenta single strand cDNA (Clontech RNA) using the following oligonucleotides: 5′oligo: 5′-[…]-3′ (SEQ ID NO: 8) 3′oligo: 5′-[…]-3′ (SEQ ID NO: 9) and subsequently ligated into pGex 6P-1 Eco RI/Xho I sites.

[1] = pNPP or FDP as substrate, 25° C., read-out: PTP IC50 Epilson
[2] = pNPP or FDP as substrate, 25° C., read-out: PTP IC50 Sigma
[3] = pNPP or FDP as substrate, 25° C., read-out: PTP IC50 Mu
[4] = pNPP or FDP as substrate, 25° C., read-out: PTP IC50 MEG2

SMILES	IC50 (PTP EPSILON; [1]) [µM]	IC50 (PTP SIGMA; [2]) [µM]	IC50 (PTP MU; [3]) [µM]	IC50 (PTP MEG2; [4]) [µM]	further results
O=[N+]([O-])c1cc(S(=O)(=O)C(F)(F)F)ccc1Oc1cc(CN2CCOCC2)c(Oc2ccc(S(=O)(=O)C(F)(F)F)cc2[N+](=O)[O-])cc1CN1CCOCC1 [Example 23, 3,6-Bis-(morpholin-4-ylmethyl)-2,5-bis-(2-nitro-4-trifluoromethanesulfonyl-phenoxy)-benzene]	2.2	8.5	18.3	> 100	–
CN(C)CC(COc1ccc(S(=O)(=O)C(F)(F)F)cc1[N+](=O)[O-])Oc1ccc(S(=O)(=O)C(F)(F)F)cc1[N+](=O)[O-] (centres unmarked) [Example 24, [2,3-Bis-(2-nitro-4-trifluoromethanesulfonyl-phenoxy)-propyl]-dimethyl-amine]	> 100	53.5	> 100	> 100	–
O=C(O)Cc1ccccc1CC(=O)Nc1cccc(S(=O)(=O)C(F)(F)F)c1 [Example 27, {2-[(3-Trifluoromethanesulfonyl-phenylcarbamoyl)-methyl]-phenyl}-acetic acid]	3.8	> 100	> 100	> 100	–
O=C(O)Cc1cccc(CC(=O)Nc2cccc(S(=O)(=O)C(F)(F)F)c2)c1 [Example 28, {3-[(3-Trifluoromethanesulfonyl-phenylcarbamoyl)-methyl]-phenyl}-acetic acid]	3.1	45.1	> 100	33.3	–
O=C(O)Cc1ccc(CC(=O)Nc2cccc(S(=O)(=O)C(F)(F)F)c2)cc1 [Example 29, {4-[(3-Trifluoromethanesulfonyl-phenylcarbamoyl)-methyl]-phenyl}-acetic acid]	26.1	60.6	> 100	68.3	–
NC(=O)c1cc(Oc2ccc(S(=O)(=O)C(F)(F)F)cc2[N+](=O)[O-])cc(Oc2ccc(S(=O)(=O)C(F)(F)F)cc2[N+](=O)[O-])c1 [Example 30, 3,5-Bis-(2-nitro-4-trifluoromethanesulfonyl-phenoxy)-benzamide]	–	–	–	–	IC50 (PTP EPSILON; PTP IC50 Epilson, pNPP or FDP as substrate, 25° C.): 4.3 µM; IC50 (PTP SIGMA; PTP IC50 Sigma, pNPP or FDP as substrate, 25° C.): 26.5 µM; IC50 (PTP MU): 28.4 µM; IC50 (PTP MEG2; PTP IC50 MEG2, pNPP or FDP as substrate, 25° C.): 64.3 µM
O=C(O)c1cc(Oc2ccc(S(=O)(=O)C(F)(F)F)cc2)cc(Oc2ccc(S(=O)(=O)C(F)(F)F)cc2)c1 [Example 31, 3,5-Bis-(4-trifluoromethanesulfonyl-phenoxy)-benzoic acid]	1.8	7.7	8.7	9.6	–
O=S(=O)(Nc1ccc(Oc2ccc(NS(=O)(=O)C(F)(F)F)cc2)cc1)C(F)(F)F [Example 73, Bis(4-trifluoromethylsulfonamidophenyl) ether]	23.1	> 100	76.1	> 100	–
Nc1ccc(Oc2ccc(Oc3ccc(N)cc3)cc2)cc1 [NH2]	–	–	–	–	IC50 (PTP EPSILON; comparison of R groups, read-out: IC50 Epsilon): > 100 µM; IC50 (PTP SIGMA; comparison of R groups, read-out: IC50 Sigma): > 100 µM; IC50 (PTP MU; comparison of R groups, read-out: IC50 Mu): > 100 µM; IC50 (PTP MEG2; comparison of R groups, read-out: IC50 MEG2): > 100 µM

Further lines, with some results ahead:

IC50 (PTP EPSILON; [1]) [µM]	IC50 (PTP SIGMA; [2]) [µM]	IC50 (PTP MU; [3]) [µM]	IC50 (PTP MEG2; [4]) [µM]	SMILES	further results
24.3	> 100	> 100	55	O=S(=O)(c1ccc(COCc2ccc(S(=O)(=O)C(F)(F)F)cc2)cc1)C(F)(F)F [Example 1, Bis (4-trifluoromethylsulfonylbenzyl) ether]	IC50 (PTP ZETA): > 100 µM
8.3	7.8	17.4	27.5	O=C(Cc1ccc(CC(=O)Nc2cccc(S(=O)(=O)C(F)(F)F)c2)cc1)Nc1cccc(S(=O)(=O)C(F)(F)F)c1 [Example 22, N-(3-Trifluoromethanesulfonyl-phenyl)-2-{4-[(3-trifluoromethanesulfonyl-phenylcarbamoyl)-methyl]-phenyl}-acetamide]	–
41.4	> 71	48.8	52.6	CCNc1ccc(S(=O)(=O)C(F)(F)F)cc1NC(=O)Cc1ccc(S(C)(=O)=O)cc1 [Example 25, N-(2-Ethylamino-5-trifluoromethanesulfonyl-phenyl)-2-(4-methanesulfonyl-phenyl)-acetamide]	–
6.2	69	65	90.8	CCOC(=O)c1cc(Oc2ccc(S(=O)(=O)C(F)(F)F)cc2[N+](=O)[O-])c(C(=O)OCC)cc1O [Example 26, 2-Hydroxy-5-(2-nitro-4-trifluoromethanesulfonyl-phenoxy)-terephthalic acid diethyl ester]	–
1.8	7.6	3.9	58.7	O=S(=O)(Nc1ccc(Oc2cccc(Oc3ccc(NS(=O)(=O)C(F)(F)F)cc3)c2)cc1)C(F)(F)F [Example 74, 1,3-Bis(4-trifluoromethylsulfonamidophenoxy)benzene]	–
11.5	13.2	32.4	12.8	O=S(=O)(Nc1ccc(-c2nnc(-c3ccc(NS(=O)(=O)C(F)(F)F)cc3)o2)cc1)C(F)(F)F [Example 75, 2,5-Bis(4-trifluoromethylsulfonamidophenyl)-(1,3,4)oxadiazole]	–
8.4	20	6.7	12.9	CC(C)(c1ccc(NS(=O)(=O)C(F)(F)F)cc1)c1ccc(C(C)(C)c2ccc(NS(=O)(=O)C(F)(F)F)cc2)cc1 [Example 76]	–
